According to patent US20090008238A1, “TRANSPORTABLE GAS STERILIZATION UNIT, DISPOSABLE GAS GENERATOR, LIGHT ACTIVATED ANTI-INFECTIVE COATING AND METHOD OF DISINFECTION AND STERILIZATION USING CHLORINE DIOXIDE” (THE ARIZONA BD OF REG ON BEHALF OF THE UNIV OF AZ, priority 2004, published 2009):
“And” between values parts separate entries of the source, which are not always exact repeats. Identical values can stand only once.

Legend:
B. subtilis (spore) = details: 2.5 minute exposure; cited from earlier work
MRSA = details: 2.5 minute exposure; cited from earlier work
A. niger = details: 2.5 minute exposure; cited from earlier work
S. aureus = details: 2.5 minute exposure; cited from earlier work
E. coli = details: 2.5 minute exposure; cited from earlier work
[1] = relative to hypochlorite; cited from earlier work
[2] = tested on: Bacillus subtilis var. niger spores; assay: sporicidal effects of gas phase ClO2 on inoculated washers; assay type: cell-based; parameters: key to Sterility (Day 14): Yes indicates no turbidity was observed, sample is sterile.; No indicates turbidity observed, sample is not sterile; details: 4 hours; for Log Reduction: versus average of 2D and 2E
Description: Sterile washers were inoculated with 1.4×10^7 Bacillus subtilis var. niger spores and allowed to dry overnight. Solutions were prepared in sterile jars to obtain different chlorine dioxide levels. Five washers were suspended in each jar and exposed to one chlorine dioxide concentration for 4 hours in the dark. Two washers from each chlorine dioxide level were enumerated for log reduction and three washers from each chlorine dioxide concentration were analyzed for sterility. Log reduction samples were analyzed by placing one washer into 10 ml sterile Difco DE Neutralizing Broth, shaking for approximately 30 seconds and spread plating, in duplicate, onto Difco Trypticase Soy agar plates incubated at 35° C. for 48 hours. Sterility was determined by placing one washer in 50 ml sterile Difco Trypticase Soy Broth incubated at 35° C. for 14 days and visually checked daily for turbidity. Appropriate positive and negative controls were run with test samples.

[3] = concentrations up to 100 ppm, in drinking, as well as via the skin route; cited from earlier work
red blood cell = details: cited from earlier work
[4] = low concentrations (20 mg/L) of gas; cited from earlier work
[5] = drank solution, up to a concentration of 24 ppm; cited from earlier work
Simian, Rotavirus SA11 = details: pH 10; cited from earlier work

O=CCCCC=O [GA, Glutaraldehyde]
minimum bactericidal concentration, B. subtilis (spore) (B. subtilis (spore)): 100,000 ppm
minimum bactericidal concentration, MRSA (MRSA): 100,000 ppm
minimum bactericidal concentration, A. niger (A. niger): 100,000 ppm
minimum bactericidal concentration, S. aureus (S. aureus): 100,000 ppm
minimum bactericidal concentration, E. coli (E. coli): 100,000 ppm

[O][Cl+][O-] [Chlorine Dioxide]
half-life for the elimination from the plasma [1]: less than half that of hypochlorite
CFU/ml Recovered Bacillus subtilis var. niger ([2]; 50 ppm gas phase): 50,000 CFU/ml and 73,000 CFU/ml
Sterility (Day 14) ([2]; 50 ppm gas phase): No
Log Reduction ([2]; 50 ppm gas phase): 2.30 and 2.13
Sterility (Day 14) ([2]; 100 ppm gas phase): Yes
Log Reduction ([2]; 100 ppm gas phase): > 6
CFU/ml Recovered Bacillus subtilis var. niger ([2]; 200 ppm gas phase): <1 CFU/ml
Sterility (Day 14) ([2]; 200 ppm gas phase): Yes
Log Reduction ([2]; 200 ppm gas phase): >6.99
CFU/ml Recovered Bacillus subtilis var. niger ([2]; 300 ppm gas phase): <1 CFU/ml
Sterility (Day 14) ([2]; 300 ppm gas phase): Yes
Log Reduction ([2]; 300 ppm gas phase): >6.99
CFU/ml Recovered Bacillus subtilis var. niger ([2]; 400 ppm gas phase): <1 CFU/ml
Sterility (Day 14) ([2]; 400 ppm gas phase): Yes
Log Reduction ([2]; 400 ppm gas phase): >6.99
minimum bactericidal concentration, B. subtilis (spore) (B. subtilis (spore)): 100 ppm
minimum bactericidal concentration, MRSA (MRSA): 1 ppm
fetal malformation or birth defects [3]: no evidence of fetal malformation or birth defects
hematological changes (red blood cell; rats fed up to 1000 mg/l chronically for 6 months): no significant hematological changes
red blood cell counts, hematocrit and hemoglobin (red blood cell; rats, after 9 months, all treatment groups): decreased
sterilant effectiveness [4]: effective sterilant
minimum bactericidal concentration, A. niger (A. niger): 10 ppm
minimum bactericidal concentration, S. aureus (S. aureus): 1 ppm
adverse effects in human volunteers [5]: no adverse effects
minimum bactericidal concentration, E. coli (E. coli): 1 ppm
time to good antiviral activity (Simian, Rotavirus SA11): less than 15 seconds

[O-][Cl+]O [chlorite ions]
half-life for the elimination from the plasma [1]: less than half that of hypochlorite
adverse effects in human volunteers [5]: no adverse effects

Providone iodine [PVP-I]
minimum bactericidal concentration, B. subtilis (spore) (B. subtilis (spore)): >1,000 ppm
minimum bactericidal concentration, MRSA (MRSA): 100 ppm
minimum bactericidal concentration, A. niger (A. niger): 1,000 ppm
minimum bactericidal concentration, S. aureus (S. aureus): 100 ppm
minimum bactericidal concentration, E. coli (E. coli): 10 ppm

Benzalkonium chloride [BAC]
minimum bactericidal concentration, B. subtilis (spore) (B. subtilis (spore)): 1,000 ppm
minimum bactericidal concentration, MRSA (MRSA): 100 ppm
minimum bactericidal concentration, A. niger (A. niger): 10,000 ppm
minimum bactericidal concentration, S. aureus (S. aureus): 10 ppm
minimum bactericidal concentration, E. coli (E. coli): 100 ppm

OCl [SH, Sodium hypochlorite]
minimum bactericidal concentration, B. subtilis (spore) (B. subtilis (spore)): >1,000 ppm
minimum bactericidal concentration, MRSA (MRSA): 10 ppm
minimum bactericidal concentration, A. niger (A. niger): 1,000 ppm
minimum bactericidal concentration, S. aureus (S. aureus): 10 ppm
minimum bactericidal concentration, E. coli (E. coli): 10 ppm

Oc1ccccc1 [PN, Phenol]
minimum bactericidal concentration, B. subtilis (spore) (B. subtilis (spore)): >10,000 ppm
minimum bactericidal concentration, MRSA (MRSA): >10,000 ppm
minimum bactericidal concentration, A. niger (A. niger): >10,000 ppm
minimum bactericidal concentration, S. aureus (S. aureus): >10,000 ppm
minimum bactericidal concentration, E. coli (E. coli): 10,000 ppm

CCO [EtOH, Absolute Ethyl Alcohol]
minimum bactericidal concentration, B. subtilis (spore) (B. subtilis (spore)): 500,000 ppm
minimum bactericidal concentration, MRSA (MRSA): 500,000 ppm
minimum bactericidal concentration, A. niger (A. niger): 500,000 ppm
minimum bactericidal concentration, S. aureus (S. aureus): 500,000 ppm
minimum bactericidal concentration, E. coli (E. coli): 500,000 ppm

N=C(NCCCCCCNC(=N)NC(=N)Nc1ccc(Cl)cc1)NC(=N)Nc1ccc(Cl)cc1.O=C(O)[C@H](O)[C@@H](O)[C@H](O)[C@H](O)CO.O=C(O)[C@H](O)[C@@H](O)[C@H](O)[C@H](O)CO [CHG, Chlorhexidine digluconate]
minimum bactericidal concentration, B. subtilis (spore) (B. subtilis (spore)): 1,000 ppm
minimum bactericidal concentration, MRSA (MRSA): 1,000 ppm
minimum bactericidal concentration, A. niger (A. niger): >10,000 ppm
minimum bactericidal concentration, S. aureus (S. aureus): 10 ppm
minimum bactericidal concentration, E. coli (E. coli): 100 ppm
